{"source": "patent US10167258B2", "about": "“Inhibitors of mitochondrial pyruvate dehydrogenase kinase isoforms 1-4 and uses thereof” (The Board of Regents of the University of Texas System, priority 2013, dated 2019)", "key": {"[1]": {"target": "PDK3 (Homo sapiens, UniProt Q15120)", "sequence (Q15120 whole entry, the tested form may be a part)": "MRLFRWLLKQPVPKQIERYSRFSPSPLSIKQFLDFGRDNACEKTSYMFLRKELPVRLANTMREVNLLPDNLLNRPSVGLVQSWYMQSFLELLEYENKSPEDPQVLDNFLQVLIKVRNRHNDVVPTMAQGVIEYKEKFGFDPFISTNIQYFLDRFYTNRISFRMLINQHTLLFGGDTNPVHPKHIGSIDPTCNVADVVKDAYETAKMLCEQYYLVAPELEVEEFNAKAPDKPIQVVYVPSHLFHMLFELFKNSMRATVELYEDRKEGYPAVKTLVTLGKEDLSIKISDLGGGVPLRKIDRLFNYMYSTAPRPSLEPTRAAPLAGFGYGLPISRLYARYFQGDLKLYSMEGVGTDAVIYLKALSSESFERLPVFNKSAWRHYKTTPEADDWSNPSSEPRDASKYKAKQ", "experiment": "Assay for inhibition of PDK activity, PDK3", "format": "biochemical", "set-up": "made in house", "settings": "absence of E2/E3BP core (−)", "protocol": "Recombinant human PDK2 was expressed and purified as a N terminal His6-tagged SUMO fusion protein with a tobacco-etch-virus protease (TEV) cleavage site in front of the N-terminal PDK2 sequence (26), and was used directly for the activity assay and binding affinity analyses. For crystallization, the protein was subjected to a TEV-protease digestion, and the untagged PDK2 protein was purified on a Superdex 200 column in 20 mM Tris-HCl (pH 8.0), 150 mM NaCl and 5 mM DTT. The purified protein was concentrated to 35-40 mg/ml and stored at −80° C. in small aliquots. Recombinant human PDK1, PDK3 and PDK4 were expressed and purified as described previously (26).\n. The remaining steps were described previously (26). IC50 values were obtained by the curve fitting of inhibition isotherms using Prism 6 (GraphPad software, Inc.)."}, "[2]": {"test_system": "ChREBP", "experiment": "Hepatic nuclear ChREBP protein levels in PDK inhibitor-treated DIO mice", "format": "in vivo", "settings": "40 mg/kg/day by mini-pumps for 5 days", "source_text": "The antibody (from Santa Cruz) against the 95-kilodalton ChREBP is highly specific; no signal was detected in hepatic nuclear fractions from ChREBP KO mice. The reduced nuclear ChREBP protein levels correlate with curtailed liver-type pyruvate kinase (LPK) (FIG. 11B), the marker glycolytic enzyme tightly regulated by ChREBP^5. The increased PDC flux is indicated by diminished phosphorylation of the decarboxylase/dehydrogenase (E1)-α subunit of this enzyme complex (FIG. 11B); while the expression of this subunit is not affected (not shown). The glucose-sensitive transcription factor ChREBP discovered and cloned by the Uyeda group in 2001 (Yamashita et al., 2001) has emerged as a central regulator of lipogenesis in liver (Uyeda and Repa, 2006; Filhoulaud et al., 2013; Denechaud et al., 2008) and β-cells (Cha-Molstad et al., 2009; Kibbe et al., 2013) at the transcriptional level (Uyeda and Repa, 2006; Filhoulaud et al., 2013; Denechaud et al., 2008). […] Therefore, the inventors propose that increased glucose oxidation through PDC flux lowers hepatic glucose concentrations and attenuates nuclear ChREBP-mediated de novo lipogenesis in liver (FIG. 12A). […]"}, "[3]": {"test_system": "PDC", "experiment": "Assay for PDC activity in tissues of treated DIO mice", "format": "in vivo", "settings": "single dose 70 mg/kg IP, 10 h", "protocol": "Six- to eight-week old C57BL/6J male mice were obtained from the local campus breeding colony at UT Southwestern Medical Center (Dallas, Tex.) and randomized into two groups: vehicle- and PS10-treated. Prior to the treatment, mice were fed with a 60% high-fat diet, which contained 32% saturated and 68% unsaturated fat (catalog number: D12492, Research Diet Inc. New Brunswick, N.J.), for eight to ten weeks to produce DIO animals. PS-10 was dissolved in 100% DMSO and then diluted to make a 10% DMSO aqueous solution containing 17.5% (w/v) (2-hydroxypropyl)-β-cyclodextrin for delivery. Animals were dosed at mid-day by intraperitoneal (IP) injections at 70 mg/kg using 1-ml syringe and 30-gauge needle. The length of the treatment is indicted in each experiment. At 10 h after the last injection, animals were euthanized using carbon dioxide asphyxiation followed by cervical dislocation and dissection. Blood was harvested by cardiac puncture and stored on ice. Acidified citrate dextrose (ACD) was used as an anticoagulant. Immediately after blood collection, heart, liver, kidneys and both hind-leg quadriceps muscles were removed and snap frozen in liquid nitrogen. Average ischemia time before organ harvest was about 2 to 3 min. Blood was centrifuged in an Eppendorf 5415R refrigerated microcentrifuge at 9,300×g for 5 min to isolate plasma, which was subsequently stored at −80° C.\nLiquid nitrogen-stored tissue samples were removed and thawed on ice. Individual kidneys (200-250 mg), hearts (200-300 mg), muscle (200-300 mg) and liver (250-400 mg) tissues samples were manually homogenized in an ice-chilled glass homogenizer containing 1 ml of the homogenization buffer. The homogenization buffer contained 30 mM KPi, pH 7.5, 3 mM EDTA, 5 mM DTT, 1 mM benzamidine, 3% fetal bovine serum, 5% Triton X-100 and 1 mM leupeptin. Samples were transferred to ice-cold 10 ml polycarbonate tubes and spun in an ultracentrifuge at 25,000×g for 10 min to pellet cell and tissue debris. Supernatants were removed and stored on ice until diluted (1:3 for muscle, 1:5 for liver and 1:20 for kidneys and heart tissues) with a dilution buffer containing 50 mM HEPES, pH 7.5, 1.0 mM DTT, 0.1% Triton X-100, 5 mM DCA, 50 mM NaF, 3% fetal bovine serum and 1 mM leupeptin. The diluted samples (50 μl) were placed in each well of a 24-well plate containing 310 μl of the reaction mixture. A micro-bridge (Hampton Research) was pre-set into each well holding one piece of filter wick pre-soaked with 2 M NaOH. […] Assay plates were incubated further at 37° C. for 45 min. ^14CO2-trapped on 2 M NaOH soaked filter wicks were counted in a liquid scintillation counter. Total protein concentrations in the samples were determined by using BCA protein assay kit (Thermo fisher Scientific, Rockford, Ill.)."}}}
{"compound": "O=S(=O)(c1ccc(O)cc1O)N1Cc2cc(O)cc(O)c2C1", "note": "[PS10, 2-((2,4-dihydroxyphenyl)sulfonyl)isoindoline-4,6-diol]", "values": [{"measurement": "IC50", "setting": "[1]", "value": 21.3, "unit": "µM"}, {"measurement": "ChREBP protein levels in hepatic nuclear fractions", "setting": "[2]", "value": "drastically decreased"}, {"measurement": "PDC activity in heart, fold over vehicle-treated", "setting": "[3]", "value": 11, "unit": "fold"}, {"measurement": "PDC activity in kidneys, fold enhancement over vehicle-treated", "setting": "[3]", "value": 1.4, "unit": "fold"}, {"measurement": "PDC activity in liver, fold over vehicle-treated", "setting": "[3]", "value": 23, "unit": "fold"}, {"measurement": "PDC activity in quadriceps muscle vs vehicle-treated", "setting": "[3]", "value": "no difference"}]}
